Where two headings read alike, the source gives them in different places.
Tests used:
[1] = test system: purified bovine brain tubulin; assay: Tubulin polymerization assay (light scattering, BK006 kit); assay type: biochemical; details: compound at 10 μM; for Fold Reduction in Vmax: relative to vehicle
Procedure, shortened: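 Purified bovine brain tubulin (3 mg/mL) in PIPES 80 mM pH 6.9, EGTA, MgCl2, 1 mM GTP, 10% glycerol incubated at 37 °C with compound at 10 µM or vehicle (1% DMSO or EtOH). Assembly followed turbidimetrically at 340 nm; values are means of two independent assays.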

CCRF-CEM = assay: NCI-60 SRB screen, leukemia; assay type: cell-based; details: Homo sapiens, 48 h
HL-60(TB) = assay: NCI-60 SRB screen, leukemia; assay type: cell-based, human; details: Homo sapiens
RPMI-8226 = assay: NCI-60 SRB screen, leukemia; assay type: cell-based, human; details: Homo sapiens
HOP-62 = assay: NCI-60 SRB screen, non-small cell lung cancer; assay type: cell-based, human; details: Homo sapiens
NCI-H460 = assay: NCI-60 SRB screen, non-small cell lung cancer; assay type: cell-based, human; details: Homo sapiens
HCT-116 = assay: NCI-60 SRB screen, colon cancer; assay type: cell-based, human; details: Homo sapiens
HT29 = assay: NCI-60 SRB screen, colon cancer; assay type: cell-based, human; details: Homo sapiens
SF295 = assay: NCI-60 SRB screen, CNS cancer; assay type: cell-based, human; details: Homo sapiens
SNB-75 = assay: NCI-60 SRB screen, CNS cancer; assay type: cell-based, human; details: Homo sapiens
DU-145 = assay: NCI-60 SRB screen, prostate cancer; assay type: cell-based, human; details: Homo sapiens
MALME-3M = assay: NCI-60 SRB screen, melanoma; assay type: cell-based, human; details: Homo sapiens; MALME-3M; five dose 0.01–100 µM, 48 h; read-out: GI50
M14 = assay: NCI-60 SRB screen, melanoma; assay type: cell-based, human; details: Homo sapiens
MDA-MB-435 = assay: NCI-60 SRB screen, melanoma; assay type: cell-based, human; details: Homo sapiens
SK-MEL-2 = assay: NCI-60 SRB screen, melanoma; assay type: cell-based, human; details: Homo sapiens; SK-MEL-2; five dose 0.01–100 µM, 48 h; read-out: GI50
UACC-62 = assay: NCI-60 SRB screen, melanoma; assay type: cell-based, human; details: Homo sapiens
OVCAR-3 = assay: NCI-60 SRB screen, ovarian cancer; assay type: cell-based, human; details: Homo sapiens
OVCAR-5 = assay: NCI-60 SRB screen, ovarian cancer; assay type: cell-based, human; details: Homo sapiens
OVCAR-8 = assay: NCI-60 SRB screen, ovarian cancer; assay type: cell-based, human; details: Homo sapiens
NCI/ADR-RES = assay: NCI-60 SRB screen, ovarian cancer; assay type: cell-based, human; details: Homo sapiens, 48 h
786-0 = assay: NCI-60 SRB screen, renal cancer; assay type: cell-based, human; details: Homo sapiens
RXF 393 = assay: NCI-60 SRB screen, renal cancer; assay type: cell-based, human; details: Homo sapiens
HS 578T = assay: NCI-60 SRB screen, breast cancer; assay type: cell-based; details: Homo sapiens, 48 h
BT-549 = assay: NCI-60 SRB screen, breast cancer; assay type: cell-based, human; details: Homo sapiens
T-47D = assay: NCI-60 SRB screen, breast cancer; assay type: cell-based, human; details: Homo sapiens, T47D, 48 h
MDA-MB-468 = assay: NCI-60 SRB screen, breast cancer; assay type: cell-based, human; details: Homo sapiens
[2] = test system: MCF-7 human breast cancer cells; assay: cells
NCI-H332M = assay: NCI-60 SRB screen, non-small cell lung cancer; assay type: cell-based; details: Homo sapiens, 48 h
[3] = five dose 0.01–100 µM, read-out: GI50
[4] = HL-60(TB), five dose 0.01–100 µM, 48 h
[5] = RPMI-8226, five dose 0.01–100 µM, 48 h, read-out: GI50
[6] = HOP-62, five dose 0.01–100 µM, 48 h, read-out: GI50
[7] = NCI-H460, five dose 0.01–100 µM, 48 h, read-out: GI50
[8] = HCT-116, five dose 0.01–100 µM, 48 h, read-out: GI50
[9] = HT-29, HT29, five dose 0.01–100 µM, 48 h, read-out: GI50
[10] = SF-295, SF295, five dose 0.01–100 µM, 48 h, read-out: GI50
[11] = SNB-75, five dose 0.01–100 µM, 48 h, read-out: GI50
[12] = DU-145, five dose 0.01–100 µM, 48 h, read-out: GI50
[13] = M14, five dose 0.01–100 µM, 48 h, read-out: GI50
[14] = MDA-MB-435, five dose 0.01–100 µM, 48 h, read-out: GI50
[15] = UACC-62, five dose 0.01–100 µM, 48 h, read-out: GI50
[16] = OVCAR-3, five dose 0.01–100 µM, 48 h, read-out: GI50
[17] = OVCAR-5, five dose 0.01–100 µM, 48 h, read-out: GI50
[18] = OVCAR-8, five dose 0.01–100 µM, 48 h, read-out: GI50
[19] = 786-0, five dose 0.01–100 µM, 48 h, read-out: GI50
[20] = RXF 393, five dose 0.01–100 µM, 48 h, read-out: GI50
[21] = HS 578T, five dose 0.01–100 µM, read-out: GI50
[22] = BT-549, five dose 0.01–100 µM, 48 h, read-out: GI50
[23] = T-47D, five dose 0.01–100 µM, read-out: GI50
[24] = MDA-MB-468, five dose 0.01–100 µM, 48 h, read-out: GI50

## C=C(C)C1C(=O)N(c2cc(OC)c(OC)c(OC)c2)C1c1ccc(OC)cc1 (stereo not drawn) [9h, 4-(4-Methoxyphenyl)-1-(3,4,5-trimethoxyphenyl)-3-(prop-1-en-2-yl)azetidin-2-one]
[1]
  Fold Reduction in Vmax: 1.81
CCRF-CEM; [3]
  GI50: 37.5 nM
HL-60(TB); [4]
  GI50: 33.1 nM
HL-60(TB); HL-60, NCI screen
  GI50: < 34 nM
RPMI-8226; [5]
  GI50: 39.9 nM
HOP-62; [6]
  GI50: 57.6 nM
NCI-H460; [7]
  GI50: 35.6 nM
HCT-116; [8]
  GI50: 31.7 nM
HT29; [9]
  GI50: 35.4 nM
SF295; [10]
  GI50: 43 nM
SNB-75; [11]
  GI50: 38 nM
DU-145; [12]
  GI50: 29.1 nM
MALME-3M
  GI50: > 100000 nM
M14; [13]
  GI50: 221 nM
MDA-MB-435; [14]
  GI50: 294 nM
SK-MEL-2
  GI50: 18600 nM
UACC-62; [15]
  GI50: 39.2 nM
OVCAR-3; [16]
  GI50: 25.4 nM
OVCAR-5; [17]
  GI50: 98.3 nM
OVCAR-8; [18]
  GI50: 37.3 nM
NCI/ADR-RES; [3]
  GI50: 21.3 nM
786-0; [19]
  GI50: 44.2 nM
RXF 393; [20]
  GI50: 37.5 nM
HS 578T; [21]
  GI50: 39.1 nM
BT-549; [22]
  GI50: 32.9 nM
T-47D; [23]
  GI50: 26500 nM
MDA-MB-468; [24]
  GI50: 25 nM
[2]; MCF7, MCF-7
  IC50: 33 nM

## C=C(C)C1C(=O)N(c2cc(OC)c(OC)c(OC)c2)C1c1ccc(OC)c(N)c1 (stereo not drawn) [9s, 4-(3-Amino-4-methoxyphenyl)-1-(3,4,5-trimethoxyphenyl)-3-(prop-1-en-2-yl)azetidin-2-one]
[1]
  Fold Reduction in Vmax: 2.66
CCRF-CEM; [3]
  GI50: 37.7 nM
HL-60(TB); [4]
  GI50: 28.3 nM
HL-60(TB); HL-60, NCI screen
  GI50: < 34 nM
RPMI-8226; [5]
  GI50: 35.9 nM
HOP-62; [6]
  GI50: 52.1 nM
NCI-H332M; [3]
  GI50: 51.1 nM
NCI-H460; [7]
  GI50: 33.2 nM
HCT-116; [8]
  GI50: 30.2 nM
HT29; [9]
  GI50: 33.7 nM
HT29; HT-29, text of the NCI screening section, read-out: IC50
  IC50: 34 nM
SF295; [10]
  GI50: 34.4 nM
SNB-75; [11]
  GI50: 60.1 nM
DU-145; [12]
  GI50: 23.6 nM
M14; [13]
  GI50: 24.8 nM
MDA-MB-435; [14]
  GI50: 26 nM
SK-MEL-2
  GI50: 67.6 nM
UACC-62; [15]
  GI50: 40.6 nM
OVCAR-3; [16]
  GI50: 22.8 nM
OVCAR-5; [17]
  GI50: 81.3 nM
OVCAR-8; [18]
  GI50: 30.8 nM
NCI/ADR-RES; [3]
  GI50: 18.5 nM
786-0; [19]
  GI50: 37.6 nM
RXF 393; [20]
  GI50: 39.6 nM
HS 578T; [21]
  GI50: 40.9 nM
BT-549; [22]
  GI50: 37.8 nM
T-47D; [23]
  GI50: > 100000 nM
MDA-MB-468; [24]
  GI50: 21.6 nM
[2]; MCF7, MCF-7
  IC50: 33 nM

## C=C/C=C/C1C(=O)N(c2cc(OC)c(OC)c(OC)c2)C1c1ccc(OC)c(N)c1 (stereo not drawn) [11r, (E)-4-(3-Amino-4-methoxyphenyl)-3-(buta-1,3-dien-1-yl)-1-(3,4,5-trimethoxyphenyl)azetidin-2-one]
[1]; 37 °C, 340 nm
  Vmax: 0.0035 mOD/min
[1]
  Fold Reduction in Vmax: 2.0
CCRF-CEM
  GI50: 36.5 nM
HL-60(TB); [4]
  GI50: 29.5 nM
HL-60(TB); HL-60, NCI screen
  GI50: < 34 nM
RPMI-8226; RPMI-8226, 48 h
  GI50: 34.8 nM
HOP-62; HOP-62, 48 h
  GI50: 52.5 nM
NCI-H332M
  GI50: 57.9 nM
NCI-H460; NCI-H460, 48 h
  GI50: 33.2 nM
HCT-116; HCT-116, 48 h
  GI50: 27.2 nM
HT29; HT-29
  IC50: 34 nM
HT29; HT-29, 48 h
  GI50: 33.6 nM
SF295; SF-295, 48 h
  GI50: 30.1 nM
SNB-75; SNB-75, 48 h
  GI50: 36.8 nM
DU-145; DU-145, 48 h
  GI50: 26 nM
M14; M14, 48 h
  GI50: 22.3 nM
MDA-MB-435; MDA-MB-435, 48 h
  GI50: 22.1 nM
UACC-62; UACC-62, 48 h
  GI50: 39.6 nM
OVCAR-3; OVCAR-3, 48 h
  GI50: 26.2 nM
OVCAR-5; OVCAR-5, 48 h
  GI50: 93.7 nM
OVCAR-8; OVCAR-8, 48 h
  GI50: 38.4 nM
NCI/ADR-RES
  GI50: 19.6 nM
786-0; 786-0, 48 h
  GI50: 32.7 nM
RXF 393; RXF 393, 48 h
  GI50: 45.7 nM
HS 578T; Hs-578T
  GI50: 53 nM
BT-549; BT-549, 48 h
  GI50: 25.3 nM
T-47D
  GI50: > 100000 nM
MDA-MB-468; MDA-MB-468, 48 h
  GI50: 26.7 nM
[2]; MCF7, read-out: Antiproliferative Activity IC50
  IC50: 36 ± 5 nM

## C=C(C)C1C(=O)N(c2cc(OC)c(OC)c(OC)c2)C1c1ccc(OC)c(OP(=O)(O)O)c1 (stereo not drawn) [15a, 2-Methoxy-5-(4-oxo-3-(prop-1-en-2-yl)-1-(3,4,5-trimethoxyphenyl)azetidin-2-yl)-phenyl dihydrogen phosphate]
CCRF-CEM; [3]
  GI50: 55.7 nM
HL-60(TB); [4]
  GI50: 27.9 nM
HL-60(TB); HL-60, NCI screen
  GI50: < 34 nM
RPMI-8226; [5]
  GI50: 105 nM
HOP-62; [6]
  GI50: 105 nM
NCI-H332M; […], five dose 0.01–100 µM, read-out: GI50
  GI50: 82 nM
NCI-H460; [7]
  GI50: 44.8 nM
HCT-116; [8]
  GI50: 50.6 nM
HT29; [9]
  GI50: 577 nM
SF295; [10]
  GI50: 32.4 nM
SNB-75; [11]
  GI50: 36.1 nM
DU-145; [12]
  GI50: 80.9 nM
MALME-3M
  GI50: 30100 nM
M14; [13]
  GI50: 123 nM
MDA-MB-435; [14]
  GI50: 25.9 nM
SK-MEL-2
  GI50: 75 nM
UACC-62; [15]
  GI50: 55.5 nM
OVCAR-3; [16]
  GI50: 62.4 nM
OVCAR-5; [17]
  GI50: 535 nM
OVCAR-8; [18]
  GI50: 50.6 nM
NCI/ADR-RES; [3]
  GI50: 36.5 nM
786-0; [19]
  GI50: 390 nM
RXF 393; [20]
  GI50: 123 nM
HS 578T; [21]
  GI50: 63.1 nM
BT-549; [22]
  GI50: 59.6 nM
T-47D; [23]
  GI50: > 100000 nM
MDA-MB-468; [24]
  GI50: 131 nM
[2]; MCF7
  IC50: 19 nM

Source: publication PMC10385824, “Antiproliferative and Tubulin-Destabilising Effects of 3-(Prop-1-en-2-yl)azetidin-2-Ones and Related Compounds in MCF-7 and MDA-MB-231 Breast Cancer Cells” (Pharmaceuticals, 2023)
